Experimental data published in patent publication US20260174858A1, “TARGETING THE m6A MRNA DEMETHYLASE FTO” (University of Virginia Patent Foundation, priority 2022, published 2026).
d = 2'-deoxy (DNA); r = 2'-OH (RNA); {P} = phosphate

System: mouse BMDMs
Assay: VEGFA release in mouse BMDMs (ELISA)
Assay type: cell-based
Details: ELISA
Description: Primary WT or mutant mouse bone marrow derived macrophages (BMDMs) were isolated as previously described (4). BMDMs were cultured in IMDM (Gibco) basal medium containing 10% fetal bovine serum (FBS), 30% L929 supernatants, nonessential amino acids, sodium pyruvate, 2-mercaptoethanol, and antibiotics. THP-1 cells were cultured in RPMI 1640 medium with 10% FBS and antibiotics. Human RPE cells were isolated as previously described and cultured in DMEM medium with 10% FBS and antibiotics. All cells were maintained at 37° C. in a 5% CO2 environment.
The RPE-choroid complex was isolated from mouse eyes on day 3 after laser injury and treatment with FTO inhibitor or vehicle. Eye tissues were lysed by sonication with immunoprecipitation assay (RIPA) buffer (Sigma-Aldrich, R0278, USA) containing protease inhibitor (Sigma-Aldrich, 11836170001, USA), on ice for 15 minutes. The lysate was centrifuged at 20,000×g for 15 minutes at 4° C., and total protein in the lysates was quantified using the Thermo Scientific™ Pierce™ BCA™ Protein Assay (Fisher Scientific, PI23225, USA). VEGFA protein levels in the supernatants were measured by VEGF DuoSet ELISA (R&D Systems, DY493, USA), following the manufacturer's instructions. Mouse BMDMs or human THP-1 cells (5×10^5 cells per well) were plated into six-well plates in complete medium and allowed to adhere overnight. Cells were then incubated for 24 hours in the absence or presence of various doses of FTO inhibitor or METTL3 inhibitors (STM2457, Selleck Chemicals). […] The siRNAs (siFto: 5′-P.G.A.G.G.A.U.C.C.A.A.G.G.C.A.A.A.G.A.U.dT.dT 3′ (SEQ ID NO: 38); siCtrl: 5′-P.U.A.A.G.G.C.U.A.U.G.A.A.G.A.G.A.U.dT.dT 3′; SEQ ID NO: 39), were designed and synthesized by GE Healthcare Dharmacon, were transfected twice with BMDMs by using DharmaFECT 4 Transfection Reagent (Dharmacon, T-2004, USA). VEGFA levels in the supernatants were measured by mouse or human VEGF DuoSet ELISA (R&D Systems, DY493 or DY293B, USA), following the manufacturer's instructions.

Row | Substance | VEGFA release with METTL3 inhibitor (various doses, 24 hours) | VEGFA release after Fto knockdown (BMDMs transfected with siRNA targeting Fto vs control)
1 | STM2457 | dose-dependent increase in VEGFA release | 
2 | siFto: siFto: 5′-P.G.A.G.G.A.U.C.C.A.A.G.G.C.A.A.A.G.A.U.dT.dT 3′ (SEQ ID NO: 38), Dharmacon (sense GAGGAUCCAAGGCAAAGAUTT; sugars from the 5' end r19 d2, 5' {P}, backbone not given here) |  | significantly dampened macrophage mediated VEGFA release
